Laboratory results from PMC9929129, “Towards Translation of PqsR Inverse Agonists: From In Vitro Efficacy Optimization to In Vivo Proof‐of‐Principle” (Advanced Science, 2023).
Where two headings read alike, the source gives them in different places.

Tests used:
[1] = SafetyScreen44 (Eurofins), whole panel; settings: at 10 × 10^−6 M
Protocol: 1.4 Safety Pharmacology of Compound 24
1.4.1 Cerep panel (Eurofins)
Compound 24 was further profiled for its off-target interactions against a panel of 44 targets. The screening was done by Eurofins Pharma Discovery within the SafetyScreen44 Panel (Cerep, ITEM P270). In all assays binding/functional inhibition was determined at 10 µM.
Table S6. List of binding assays within the CEREP44 off-target panel and binding data for compound […]
Ca2+ channel (L, dihydropyridine site) (antagonist radioligand) 75.3
Norepinephrine transporter (h) (antagonist radioligand) 74.7
Potassium Channel hERG (human) [3H] Dofetilide 73.1 […]
5-HT transporter (h) (antagonist radioligand) 49.8 […]
MAO-A (antagonist radioligand) 24.9 kappa (h) (KOP) (agonist radioligand) 23.6 dopamine transporter (h) (antagonist radioligand) 22.7 […]
KV channel (antagonist radioligand) 14.2 […]
5-HT1A (h) (agonist radioligand) 11.3 alpha2A (h) (antagonist radioligand) 8.4 […]

[2] = system: PA14 biofilm; assay: Biofilm-formation assay (Calgary biofilm device); format: cell-based, Pseudomonas aeruginosa; settings: 24 present from the beginning or added 8 h after onset of biofilm growth; CFU after 48 h
Protocol: MA, USA) instrument parameters: Spray voltage 3500 V, vaporizer temperature 370 °C, sheath gas pressure 35 psi, aux gas pressure 30 psi, capillary temperature 270 °C, collision pressure 1.5 mTorr, positive ionization mode. For AQ analyte reaction monitoring parameters please see Table S1.
Table S1. LC-ESI-MS/MS reaction monitoring parameters of AQ analytes in positive ionization mode. precursor product ion collision tube lens retention ion m/z m/z energy (V) offset (V) time (min)
1.2.4 Biofilm-formation assay
Biofilm formation was determined using a MBEC Assay® Biofilm Inoculator with 96-well base (Innvotech, Edmonton, CA). An overnight culture of PA14 was centrifuged (10 min, 5000 x g). The supernatant including extracellular polymers was removed and the pellet washed with 10 mL of LB medium. Centrifugation was repeated, the supernatant discarded, and the pellet resuspended in 5 mL of LB. OD was adjusted to 0.2. The bacteria were further diluted in LB medium, followed by addition of the target compound or DMSO control to give OD 0.1 and 1% DMSO. 150 µL were added to each well of the 96-well plate. The outer wells were used as blanks containing 150 µL of 1% DMSO in LB. Six replicates per sample were distributed evenly across the plate, with every row containing one replicate of each sample. […]
Statistical outliers were determined using the Nalimov test, applying a 95% cut-off. […]

[3] = molecular target: T1, hKv1.5 potassium channels (Homo sapiens, UniProt P22460); assay: Ion channel profiling at Charles River: hKv1.5; format: cell-based
T1 construct: host or cells: CHO cells
T1 sequence (P22460 whole entry): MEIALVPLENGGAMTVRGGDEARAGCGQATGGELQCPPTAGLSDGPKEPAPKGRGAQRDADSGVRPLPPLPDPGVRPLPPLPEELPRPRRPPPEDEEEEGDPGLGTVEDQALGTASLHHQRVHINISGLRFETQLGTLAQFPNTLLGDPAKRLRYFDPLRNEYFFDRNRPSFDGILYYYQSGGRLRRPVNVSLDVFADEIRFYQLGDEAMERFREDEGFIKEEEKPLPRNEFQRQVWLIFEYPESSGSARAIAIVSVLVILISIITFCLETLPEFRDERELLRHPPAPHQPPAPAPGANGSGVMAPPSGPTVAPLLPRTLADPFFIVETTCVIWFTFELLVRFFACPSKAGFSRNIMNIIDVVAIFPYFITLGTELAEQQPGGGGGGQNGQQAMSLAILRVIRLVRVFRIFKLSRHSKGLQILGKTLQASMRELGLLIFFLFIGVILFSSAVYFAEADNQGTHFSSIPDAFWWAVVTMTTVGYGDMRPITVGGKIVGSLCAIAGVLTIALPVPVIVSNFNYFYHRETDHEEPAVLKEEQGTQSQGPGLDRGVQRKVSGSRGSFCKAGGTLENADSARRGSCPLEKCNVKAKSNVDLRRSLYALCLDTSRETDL
Protocol: (§1) 1.4.3 Ion Channel Profiling at Charles River
(§2) Table S9. Compound 24 was tested against the following ion channels at Charles River Laboratories. […]
FASTPatch Assay IK (KCa3.1) calcium-activated potassium channel (human KCNN4 >30 gene) expressed in CHO cells
Cloned hKv1.5 potassium channels (encoded by the human 32.6
KCNA5 gene, expressed in CHO cells) […]
(§3) FLIPR Assay expressed in HEK293 cells
(§4) GABAA α5/β3/γ2 ionotropic receptor (human GABRA5, GABRB3, >30 and GABRG2 genes, expressed in HEK293 cells

[4] = Plasma protein binding, human (equilibrium dialysis); format: in vitro ADME
Protocol: (§5) 1.4.4 Pharmacokinetic and off-target functional assays (Cyprotex)
(§6) Compound 24 was assayed at Cyprotex in functional assays for interference with important off-targets as well as important pharmacokinetic parameters. With the exception of plasma protein binding, a dose-response relationship was studied in order to calculate IC50 values.
(§7) Table S10. Information on in vitro ADMET assays performed at Cyprotex. […]
Plasma protein binding assay (human and Equilibrium dialysis […]
(§8) An increase in the number of colonies of at least two-fold over baseline (mean + SD of the vehicle control) and a dose response indicate a positive response. An […]
(§9) different from the vehicle control.
(§10) Where indicated, S9 fraction from the livers of Aroclor 1254-treated rats were included in the incubation at a final concentration of 4.5%. A NADPH-regenerating system was also included to ensure a steady supply of reducing equivalents.

[5] = molecular target: T2, P2X4 receptor (Homo sapiens, UniProt Q99571); assay: Ion channel profiling at Charles River: P2X4; format: cell-based; settings: expressed in HEK293 cells; read-out: ESTIMATED IC50
T2 construct: host or cells: HEK293 cells
T2 sequence (Q99571 whole entry): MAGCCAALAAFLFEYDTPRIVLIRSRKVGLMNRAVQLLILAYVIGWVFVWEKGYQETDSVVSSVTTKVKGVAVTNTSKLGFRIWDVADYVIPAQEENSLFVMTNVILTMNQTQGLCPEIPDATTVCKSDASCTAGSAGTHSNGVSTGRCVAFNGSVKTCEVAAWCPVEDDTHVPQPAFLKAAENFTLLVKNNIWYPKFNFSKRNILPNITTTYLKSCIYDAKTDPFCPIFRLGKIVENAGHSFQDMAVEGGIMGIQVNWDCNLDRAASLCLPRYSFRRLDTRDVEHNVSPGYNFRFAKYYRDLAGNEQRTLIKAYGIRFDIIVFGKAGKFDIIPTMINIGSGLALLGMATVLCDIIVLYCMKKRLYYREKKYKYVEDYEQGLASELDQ
Protocol: as §1, §2, §3, §4
P2X4 receptor (human P2RX4 gene) expressed in HEK293 cells >30 […]
as §8, §9, §10

[6] = molecular target: T3, hERG (Homo sapiens, UniProt Q12809); assay: hERG safety, single cell electrophysiology; format: cell-based; settings: read-out: hERG inhibition IC50
T3 construct: Cyprotex
T3 sequence (Q12809 whole entry): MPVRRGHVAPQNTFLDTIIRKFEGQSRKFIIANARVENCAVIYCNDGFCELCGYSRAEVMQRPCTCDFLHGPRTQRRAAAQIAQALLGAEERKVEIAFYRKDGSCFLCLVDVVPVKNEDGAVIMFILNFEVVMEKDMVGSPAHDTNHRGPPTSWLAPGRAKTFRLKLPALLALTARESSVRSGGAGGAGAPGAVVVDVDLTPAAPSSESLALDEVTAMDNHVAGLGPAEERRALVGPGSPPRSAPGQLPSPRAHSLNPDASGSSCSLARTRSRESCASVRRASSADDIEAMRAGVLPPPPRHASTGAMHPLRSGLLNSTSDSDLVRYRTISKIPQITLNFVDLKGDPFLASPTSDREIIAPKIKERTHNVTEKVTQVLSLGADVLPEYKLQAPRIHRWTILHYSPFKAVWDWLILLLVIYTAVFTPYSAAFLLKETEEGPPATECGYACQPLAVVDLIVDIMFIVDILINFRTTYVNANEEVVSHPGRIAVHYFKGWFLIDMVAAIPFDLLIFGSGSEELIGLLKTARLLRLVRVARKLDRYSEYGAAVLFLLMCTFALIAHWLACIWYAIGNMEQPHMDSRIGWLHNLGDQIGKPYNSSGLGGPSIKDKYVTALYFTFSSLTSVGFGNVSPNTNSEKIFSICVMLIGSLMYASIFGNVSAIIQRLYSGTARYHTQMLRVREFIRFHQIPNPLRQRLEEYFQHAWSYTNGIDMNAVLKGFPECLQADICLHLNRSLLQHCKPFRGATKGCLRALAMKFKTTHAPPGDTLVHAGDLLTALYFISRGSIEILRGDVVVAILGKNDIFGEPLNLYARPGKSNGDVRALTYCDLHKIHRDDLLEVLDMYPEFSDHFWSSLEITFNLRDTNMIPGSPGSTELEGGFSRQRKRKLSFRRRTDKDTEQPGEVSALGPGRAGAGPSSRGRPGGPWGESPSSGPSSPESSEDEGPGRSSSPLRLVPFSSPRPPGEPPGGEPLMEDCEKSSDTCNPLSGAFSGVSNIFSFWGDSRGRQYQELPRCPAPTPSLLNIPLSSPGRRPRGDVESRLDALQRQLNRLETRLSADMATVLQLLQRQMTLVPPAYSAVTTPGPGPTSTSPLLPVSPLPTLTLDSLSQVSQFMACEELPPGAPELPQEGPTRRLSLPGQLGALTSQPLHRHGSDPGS
Protocol: as §5, §6, §7, §8, §9, §10

[7] = molecular target: T4, CYP2C19 (Homo sapiens, UniProt P33261); assay: Cytochrome P450 inhibition assay, CYP2C19; format: in vitro ADME; settings: Metabolic activity
T4 construct: Cyprotex
T4 sequence (P33261 whole entry): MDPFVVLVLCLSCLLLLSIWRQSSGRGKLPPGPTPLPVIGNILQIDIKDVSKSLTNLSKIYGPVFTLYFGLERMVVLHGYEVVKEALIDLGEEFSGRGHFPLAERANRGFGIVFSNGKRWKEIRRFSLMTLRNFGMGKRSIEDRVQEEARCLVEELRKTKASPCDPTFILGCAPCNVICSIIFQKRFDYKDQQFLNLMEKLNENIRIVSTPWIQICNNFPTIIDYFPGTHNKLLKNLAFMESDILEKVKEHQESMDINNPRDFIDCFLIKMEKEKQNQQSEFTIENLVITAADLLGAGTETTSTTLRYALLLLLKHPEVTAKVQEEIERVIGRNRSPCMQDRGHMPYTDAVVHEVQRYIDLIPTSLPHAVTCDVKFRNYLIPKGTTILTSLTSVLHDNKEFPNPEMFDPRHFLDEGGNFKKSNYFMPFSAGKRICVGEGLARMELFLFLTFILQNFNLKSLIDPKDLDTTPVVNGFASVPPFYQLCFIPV
Protocol: as §5, §6, §7, §8, §9, §10

## CC(C)Oc1ccc(-c2ncc(CNc3ccnc(C(F)(F)F)c3)cn2)cc1Cl [Compound 24]
[1]
  effects on any target of SafetyScreen44: ≤ 80%
[2]
  PA14 biofilm formation (CFU) compared to DMSO control: significantly attenuates
[3]; expressed in CHO cells, read-out: ESTIMATED IC50
  IC50: 32.6 µM
[3]; read-out: hKv1.5 functional inhibition IC50
  IC50: ~30 µM
[4]
  Plasma binding human: >99%
[5]
  IC50: > 30 µM
[6]
  IC50: 15.8 µM
[7]
  IC50: > 25 µM
